# Biological target: T1, PI3Kγ (p101/p110γ protein) (Homo sapiens, UniProt P48736)
# T1 construct: HA; made in house; host or cells: Spodoptera frugiperda (Sf9) cells, baculovirus co-infection
# Test: PI3Kγ In Vitro Kinase Assay
# Format: biochemical
# Conditions: purified recombinant p101/p110γ with G protein β1/γ2 subunits; 20 μM ATP, 25 μM PIP2; 20 minutes at room temperature
# Summary of the method: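 Reactions ran 20 min at room temperature, pairing lipid micelles (25 μM PIP2, 300 μM PE, 0.02% Na-cholate, 10 mM MgCl2) with 20 μM ATP including [γ-32P]ATP. The enzyme was recombinant p101/p110γ (2.7 nM) with G protein β1/γ2 (57.7 nM). [32P]PIP3 product was stopped with H3PO4, filtered and scintillation counted.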
# T1 sequence (P48736 whole entry, species assumed): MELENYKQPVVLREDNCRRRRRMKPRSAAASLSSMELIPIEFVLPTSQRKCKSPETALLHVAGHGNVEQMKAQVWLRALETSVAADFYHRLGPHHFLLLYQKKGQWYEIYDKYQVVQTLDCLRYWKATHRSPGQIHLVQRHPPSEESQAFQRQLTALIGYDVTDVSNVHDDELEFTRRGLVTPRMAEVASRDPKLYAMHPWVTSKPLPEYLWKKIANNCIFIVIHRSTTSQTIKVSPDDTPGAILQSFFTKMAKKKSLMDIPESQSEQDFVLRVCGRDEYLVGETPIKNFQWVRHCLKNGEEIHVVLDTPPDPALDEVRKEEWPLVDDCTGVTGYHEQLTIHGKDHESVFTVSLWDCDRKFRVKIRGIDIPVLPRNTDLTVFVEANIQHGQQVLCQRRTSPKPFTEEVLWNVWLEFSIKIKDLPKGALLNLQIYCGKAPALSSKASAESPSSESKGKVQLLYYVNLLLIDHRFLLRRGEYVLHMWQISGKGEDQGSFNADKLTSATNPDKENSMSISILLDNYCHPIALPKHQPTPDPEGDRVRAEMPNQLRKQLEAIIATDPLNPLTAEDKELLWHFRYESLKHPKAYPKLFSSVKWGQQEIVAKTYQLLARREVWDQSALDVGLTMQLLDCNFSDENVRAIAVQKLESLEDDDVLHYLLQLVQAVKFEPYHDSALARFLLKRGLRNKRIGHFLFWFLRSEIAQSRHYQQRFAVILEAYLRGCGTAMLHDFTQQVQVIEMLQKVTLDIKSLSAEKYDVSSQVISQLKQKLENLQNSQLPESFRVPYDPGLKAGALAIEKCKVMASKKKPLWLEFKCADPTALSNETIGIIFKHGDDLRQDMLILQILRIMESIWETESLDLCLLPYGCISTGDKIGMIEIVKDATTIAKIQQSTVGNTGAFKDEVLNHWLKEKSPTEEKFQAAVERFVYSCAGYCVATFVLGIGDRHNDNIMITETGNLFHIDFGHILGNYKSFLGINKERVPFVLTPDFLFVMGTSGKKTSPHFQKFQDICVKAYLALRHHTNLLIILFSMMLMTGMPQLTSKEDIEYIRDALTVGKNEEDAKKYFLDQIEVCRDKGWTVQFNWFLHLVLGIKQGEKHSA
# T1 sequence (Q8WYR1 whole entry partner, species assumed): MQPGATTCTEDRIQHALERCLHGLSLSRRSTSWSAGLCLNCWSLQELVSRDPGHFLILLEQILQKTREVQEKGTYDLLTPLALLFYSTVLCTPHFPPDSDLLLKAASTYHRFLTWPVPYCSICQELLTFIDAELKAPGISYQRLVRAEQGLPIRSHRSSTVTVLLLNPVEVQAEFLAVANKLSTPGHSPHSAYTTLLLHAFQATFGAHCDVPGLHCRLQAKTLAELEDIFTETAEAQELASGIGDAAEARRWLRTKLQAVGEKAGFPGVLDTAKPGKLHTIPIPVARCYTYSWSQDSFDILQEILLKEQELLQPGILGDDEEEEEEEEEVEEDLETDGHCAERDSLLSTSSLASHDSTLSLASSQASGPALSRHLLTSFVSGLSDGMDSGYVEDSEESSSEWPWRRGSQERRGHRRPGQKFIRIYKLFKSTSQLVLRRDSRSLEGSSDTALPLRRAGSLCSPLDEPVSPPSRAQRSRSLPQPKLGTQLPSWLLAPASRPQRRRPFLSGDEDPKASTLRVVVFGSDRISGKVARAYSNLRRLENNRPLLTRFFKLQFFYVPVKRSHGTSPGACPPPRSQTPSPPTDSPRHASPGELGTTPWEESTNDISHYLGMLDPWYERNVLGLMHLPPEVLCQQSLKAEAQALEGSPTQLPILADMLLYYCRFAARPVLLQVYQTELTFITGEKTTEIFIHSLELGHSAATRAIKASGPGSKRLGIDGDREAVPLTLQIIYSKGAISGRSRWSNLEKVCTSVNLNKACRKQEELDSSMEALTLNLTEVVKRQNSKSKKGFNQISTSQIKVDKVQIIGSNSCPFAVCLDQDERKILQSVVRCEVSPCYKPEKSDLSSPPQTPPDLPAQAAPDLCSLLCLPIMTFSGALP
row,SMILES,IC50
1,"O=C1NC(=S)SC1=Cc1cc(F)c2c(c1)N(CCc1ccc(Cl)c(Cl)c1)C(=O)CO2 [Example 111, 4-[2-(3,4-dichloro-phenyl)-ethyl]-8-fluoro-6-(4-oxo-2-thioxo-thiazolidin-5-ylidenmethyl)-4H-benzo[1,4]oxazin-3-one]",14 nM
2,"Cc1cc(C=C2SC(=S)NC2=O)cc2c1OCC(=O)N2CCc1ccc(Cl)c(Cl)c1 [Example 112, 4-[2-(3,4-dichloro-phenyl)-ethyl]-8-methyl-6-(4-oxo-2-thioxo-thiazolidin-5-ylidenmethyl)-4H-benzo[1,4]oxazin-3-one]",22 nM
3,"O=C1NC(=S)SC1=Cc1ccc2c(c1)N(CCc1cc(C(F)(F)F)cc(C(F)(F)F)c1)C(=O)CO2 [Example 113, 4-[2-(Bis-trifluromethyl-phenyl)-ethyl]-6-(4-oxo-2-thioxo-thiazolidin-5-ylidenmethyl)-4H-benzo[1,4]oxazin-3-one]",14 nM
4,"Cc1cc(CN2C(=O)COc3ccc(C=C4SC(=S)NC4=O)cc32)cc(-c2ccoc2)c1 [Example 115, 4-(3-Furan-3-yl-5-methyl-benzyl)-6-(4-oxo-2-thioxo-thiazolidin-5-ylidenemethyl)-4H-benzo[1,4]oxazin-3-one]",15 nM
5,"Cc1cc(CN2C(=O)COc3ccc(C=C4SC(=S)NC4=O)cc32)cc(-c2ccsc2)c1 [Example 116, 4-(3-Methyl-5-thiophene-3-yl-benzyl)-6-(4-oxo-2-thioxo-thiazolidin-5-ylidenemethyl)-4H-benzo[1,4]oxazin-3-one]",24 nM
6,"Cc1cc(CN2C(=O)COc3ccc(C=C4SC(=S)NC4=O)cc32)cc(-c2c(C)noc2C)c1 [Example 117, 4-[3-(3,5-Dimethyl-isoxazol-4-yl)-5-methyl-benzyl]-6-(4-oxo-2-thioxo-thiazolidin-5-ylidenemethyl)-4H-benzo[1,4]oxazin-3-one]",40 nM
7,COC(=O)c1cc(C)cc(CN2C(=O)COc3ccc(C=C4SC(=S)NC4=O)cc32)c1 [Example 118],23 nM
8,"Cc1cc(CN2C(=O)COc3ccc(C=C4SC(=S)NC4=O)cc32)cc(-c2nccs2)c1 [Example 119, 4-(3-Methyl-5-thiazol-2-yl-benzyl)-6-(4-oxo-2-thioxo-thiazolidin-5-ylidenemethyl)-4H-benzo[1,4]oxzain-3-one]",19 nM
9,Cc1cc(C#N)cc(CN2C(=O)COc3ccc(C=C4SC(=S)NC4=O)cc32)c1 [Example 120],30 nM
10,"Cc1cc(CN2C(=O)COc3ccc(C=C4SC(=S)NC4=O)cc32)cc(-c2cnccn2)c1 [Example 121, 4-(3-Methyl-5-pyrazin-2-yl-benzyl)-6-(4-oxo-2-thioxo-thiazolidin-5-ylidenemethyl)-4H-benzo[1,4]oxazin-3-one]",67 nM
11,"CC(=O)Oc1c(C)cc(CN2C(=O)COc3ccc(C=C4SC(=S)NC4=O)cc32)cc1C [Example 126, Acetic acid 2,6-dimethyl-4-{3-[3-oxo-6-(4-oxo-2-thioxo-thiazolidin-5-ylidenemethyl)-2,3-dihydro-benzo[1,4]oxazin-4-yl]-methyl}-phenyl ester]",10 nM
12,"Cn1nc(C(C)(C)C)cc1CN1C(=O)COc2ccc(C=C3SC(=S)NC3=O)cc21 [Example 128, 4-(5-tert-Butyl-2-methyl-2H-pyrazol-3-ylmethyl)-6-(4-oxo-2-thioxo-thiazolidin-5-ylidenemethyl)-4H-benzo[1,4]oxazin-3-one]",180 nM
13,"NC(=O)CN1C(=O)COc2ccc(C=C3SC(=S)NC3=O)cc21 [Example 141, 2-[3-Oxo-6-(4-oxo-2-thioxo-thiazolidin-5-ylidenemethyl)-2,3-dihydrobenzo[1,4]oxazin-4-yl]-acetamide]",860 nM
14,"O=C1NC(=S)SC1=Cc1ccc2c(c1)N(CC1CCCCC1)C(=O)CO2 [Example 143, 4-Cyclohexylmethyl-6-(4-oxo-2-thioxo-thiazolidin-5-ylidenemethyl)-4H-benzo[1,4]oxazin-3-one]",35 nM
15,"CC(C)CCN1C(=O)COc2ccc(C=C3SC(=S)NC3=O)cc21 [Example 144, 4-(3-Methyl-butyl)-6-(4-oxo-2-thioxo-thiazolidin-5-ylidenemethyl)-4H-benzo[1,4]oxazin-3-one]",24 nM
16,"O=C1NC(=S)SC1=Cc1ccc2c(c1)N(CC1CC1)C(=O)CO2 [Example 145, 4-Cyclopropylmethyl-6-(4-oxo-2-thioxo-thiazolidin-5-ylidenemethyl)-4H-benzo[1,4]oxazin-3-one]",26 nM
17,"O=C1NC(=S)SC1=Cc1ccc2c(c1)N(Cc1ccccn1)C(=O)CO2 [Example 147, 6-(4-Oxo-2-thioxo-thiazolidin-5-ylidenemethyl)-4-pyridin-2-ylmethyl-4H-benzo[1,4]oxazin-3-one]",49 nM
18,"Cc1cc(C)cc(CN2C(=O)COc3ccc(C=C4SC(=S)NC4=O)cc32)c1 [Example 150, 4-(3,5-Dimethyl-benzyl)-6-(4-oxo-2-thioxo-thiazolidin-5-ylidenemethyl)-4H-benzo[1,4]oxazin-3-one]",5 nM
19,"C[C@@H]1Oc2ccc(C=C3SC(=S)NC3=O)cc2N(Cc2ccc3ccccc3c2)C1=O [Example 152, (S)-2-Methyl-4-naphthalen-2-ylmethyl-6-(4-oxo-2-thioxo-thiazolidin-5-ylidenemethyl)-4H-benzo[1,4]oxazin-3-one]",1030 nM
20,"COc1cc(C=C2SC(=S)NC2=O)cc2c1OCC(=O)N2Cc1ccccc1 [Example 153, 4-Benzyl-8-methoxy-6-(4-oxo-2-thioxo-thiazolidin-5-ylidenemethyl)-4H-benzo[1,4]oxazin-3-one]",96 nM
21,"Cc1cc(C=C2SC(=S)NC2=O)cc2c1OCC(=O)N2 [Example 154, 8-Methyl-6-(4-oxo-2-thioxo-thiazolidin-5-ylidenemethlyl)-4H-benzo[1,4]oxazin-3-one]",160 nM
22,"CC(C)(C)CCN1C(=O)COc2ccc(C=C3SC(=S)NC3=O)cc21 [Example 155, 4-(3,3-Dimethyl-butyl)-6-(4-oxo-2-thioxo-thiazolidin-5-ylidenemethyl)-4H-1,4-benzoxazin-3-one]",10 nM
23,"O=C1NC(=S)SC1=Cc1ccc2c(c1)N(Cc1cccc(OC(F)(F)F)c1)C(=O)CO2 [Example 156, 6-(4-Oxo-2-thioxo-thiazolidin-5-ylidenemethyl)-4-(3-trifluoromethoxy-benzyl)-4H-1,4-benzoxazin-3-one]",21 nM
24,"O=C1NC(=S)SC1=Cc1ccc2c(c1)N(Cc1cccc(C(F)(F)F)c1)C(=O)CO2 [Example 157, 6-(4-Oxo-2-thioxo-thiazolidin-5-ylidenemethyl)-4-(3-trifluoromethyl-benzyl)-4H-1,4-benzoxazin-3-one]",21 nM
25,"O=C1NC(=S)SC1=Cc1ccc2c(c1)N(Cc1ccccc1-c1ccccc1)C(=O)CO2 [Example 159, 4-Biphenyl-2-ylmethyl-6-(4-oxo-2-thioxo-thiazolidin-5-ylidenemethyl)-4H-1,4-benzoxazin-3-one]",10 nM

# Further lines, results first:
row,IC50,SMILES
1,5 nM,"COc1ccc(CCCN2C(=O)COc3ccc(C=C4SC(=S)NC4=O)cc32)cc1 [Example 122, 4-[3-(4-Methoxy-phenyl)-propyl]-6-(4-oxo-2-thioxo-thiazolidin-5-ylidenemethyl)-4H-benzo[1,4]oxazin-3-one]"
2,7 nM,"COc1ccc(CCCN2C(=O)COc3ccc(C=C4SC(=O)NC4=O)cc32)cc1 [Example 123, 5-{4-[3-(4-Methoxy-phenyl)-propyl]-3-oxo-3,4-dihydro-2H-benzo[1,4]oxazin-6-ylmethylene}-thiazolidine-2,4-dione]"
3,15 nM,"COc1cc(CCCN2C(=O)COc3ccc(C=C4SC(=S)NC4=O)cc32)cc(OC)c1OC [Example 124, 6-(4-Oxo-2-thioxo-thiazolidin-5-ylidenemethyl)-4-[3-(3,4,5-trimethoxy-phenyl)-propyl]-4H-benzo[1,4]oxazin-3-one]"
4,43 nM,"O=C1NC(=S)SC1=Cc1ccc2c(c1)N(CCCc1cccc(Cl)c1Cl)C(=O)CO2 [Example 127, 4-[3-(2,3-Dichloro-phenyl)-propyl]-6-(4-oxo-2-thioxo-thiazolidin-5-ylidenemethyl)-4H-benzo[1,4]oxazin-3-one]"
5,7 nM,"COc1ccc(CCN2C(=O)COc3ccc(C=C4SC(=S)NC4=O)cc32)cc1 [Example 136, 4-[2-(4-Methoxy-phenyl)-ethyl]-6-(4-oxo-2-thioxo-thiazolidin-5-ylidenemethyl)-4H-1,4-benzoxazin-3-one]"
6,29 nM,"Cc1ccc(CN2C(=O)COc3ccc(C=C4SC(=S)NC4=O)cc32)cc1 [Example 140, 4-(4-Methyl-benzyl)-6-(4-oxo-2-thioxo-thiazolidin-5-ylidenemethyl)-4H-benzo[1,4]oxazin-3-one]"
7,30 nM,"O=C1NC(=S)SC1=Cc1ccc2c(c1)N(Cc1ccsc1)C(=O)CO2 [Example 146, 6-(4-Oxo-2-thioxo-thiazolidin-5-ylidenemethyl)-4-thiophen-3-ylmethyl-4H-benzo[1,4]oxazin-3-one]"
8,61 nM,"O=C1NC(=S)SC1=Cc1ccc2c(c1)N(Cc1ccncc1)C(=O)CO2 [Example 148, 6-(4-Oxo-2-thioxo-thiazolidin-5-ylidenemethyl)-4-pyridin-4-ylmethyl-4H-benzo[1,4]oxazin-3-one]"
9,21 nM,"N#Cc1cccc(CN2C(=O)COc3ccc(C=C4SC(=S)NC4=O)cc32)c1 [Example 149, 3-[3-Oxo-6-(4-oxo-2-thioxo-thiazolidin-5-ylidenemethyl)-2,3-dihydro-benzo[1,4]oxazin-4-ylmethyl]-benzonitrile]"
10,28 nM,"O=C1NC(=S)SC1=Cc1ccc2c(c1)N(Cc1ccc(C(F)(F)F)cc1)C(=O)CO2 [Example 158, 6-(4-Oxo-2-thioxo-thiazolidin-5-ylidenemethyl)-4-(4-trifluoromethyl-benzyl)-4H-1,4-benzoxazin-3-one]"
11,7 nM,"O=C1NC(=S)SC1=Cc1ccc2c(c1)N(CCCc1ccccc1)C(=O)CO2 [Example 160, 6-(4-Oxo-2-thioxo-thiazolidin-5-ylidenemethyl)-4-(3-phenyl-propyl)-4H-1,4-benzoxazin-3-one]"
